In patent US8501732B2, “Aminomethyl quinolone compounds” (Hoffmann-La Roche Inc., priority 2011, dated 2013) one finds IC50 and EC50 data, which are given here for 25 molecules.

One assay concerns the target JNK1 (Homo sapiens (Human), UniProt P45983). Briefly: In Vitro JNK1 Assay (TR-FRET, phosphorylation of GST-c-Jun). Type of assay: biochemical. The conditions noted are these: 0.2 nM active JNK1 kinase, 26.7 nM GST-c-Jun, 2 μM ATP, 30 min at room temperature. The method, boiled down: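 GST-c-Jun (residues 1-79) phosphorylation by JNK1 in 50 mM HEPES pH 7.0, MgCl2, 1 mM DTT, 0.1 mM Na3VO4, 0.2 mg/mL BSA, 30 min at room temperature. Stopped with EDTA plus anti-phospho-c-Jun antibody and read by TR-FRET 1 hr later. IC50 from percent inhibition over 10 serial dilutions.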

In assay [1] the test system is phospho(Ser63)-c-jun in HK-2 cells. Briefly: Cell-Based Assay for JNK Inhibitors (in-cell ELISA, phospho(Ser63)-c-jun after TNFα). The conditions noted are these: HK-2 cells (human proximal tubule cells), 60 minutes compound, then 10 ng/mL TNFα for 30 minutes. The method, boiled down:
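HK-2 human proximal tubule cells were seeded at 40,000 cells/well, cultured 24 h, then serum-starved 16–24 h before TNFα stimulation with compound. Phospho(Ser63)-c-jun was quantified by in-cell ELISA on fixed, permeabilised cells, using a rabbit phospho-specific primary (overnight, 4 °C) and an HRP-linked anti-rabbit secondary. Absorbance was read at 450 nm.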

The structures appear in SMILES notation.

In general, IC50 refers to the concentration at which inhibition is half-maximal. What is called EC50 is the concentration at which the effect is half-maximal. High values mean a less potent agent, low ones a more potent agent.

Sequence of JNK1 (P45983 whole entry, the tested form may be a part): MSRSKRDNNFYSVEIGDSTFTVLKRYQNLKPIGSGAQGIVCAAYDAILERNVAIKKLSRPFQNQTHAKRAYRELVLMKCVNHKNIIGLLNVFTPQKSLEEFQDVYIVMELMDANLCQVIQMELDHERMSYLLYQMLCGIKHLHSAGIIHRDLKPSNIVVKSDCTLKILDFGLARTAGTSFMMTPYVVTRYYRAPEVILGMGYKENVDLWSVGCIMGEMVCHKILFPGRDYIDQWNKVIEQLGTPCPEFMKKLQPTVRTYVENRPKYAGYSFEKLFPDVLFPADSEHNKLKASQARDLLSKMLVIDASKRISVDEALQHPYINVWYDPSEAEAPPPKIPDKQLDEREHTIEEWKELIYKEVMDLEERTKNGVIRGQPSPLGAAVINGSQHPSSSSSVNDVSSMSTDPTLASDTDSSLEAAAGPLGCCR

`COC(=O)c1c(CNC(=O)c2ccc(-c3ncc[nH]3)cc2)c(=O)c2ccc(Cl)cc2n1-c1ccccc1` [Example I-114, 7-Chloro-3-{[4-(1H-imidazol-2-yl)-benzoylamino]-methyl}-4-oxo-1-phenyl-1,4-dihydro-quinoline-2-carboxylic acid methyl ester]: the IC50 against JNK1 came to 7 nM. In assay [1], the EC50 was determined as 4100 nM.

On JNK1, `COC(=O)c1c(CNC(=O)c2ccc(S(N)(=O)=O)cc2)c(=O)c2ccc(Cl)cc2n1-c1ccccc1` [Example I-115, 7-Chloro-4-oxo-1-phenyl-3-[(4-sulfamoyl-benzoylamino)-methyl]-1,4-dihydro-quinoline-2-carboxylic acid methyl ester] registered an IC50 of 8 nM. In assay [1], the EC50 came to 2400 nM.

Take `COC(=O)c1c(CNC(=O)c2ccc(C(N)=O)cc2)c(=O)c2ccc(Cl)cc2n1-c1ccccc1` [Example I-117, 3-[(4-Carbamoyl-benzoylamino)-methyl]-7-chloro-4-oxo-1-phenyl-1,4-dihydro-quinoline-2-carboxylic acid methyl ester]: at JNK1, 10 nM corresponded to half-maximal inhibition (IC50). The molecule also gave an EC50 in assay [1] of 3800 nM.

`CNC(=O)c1ccc(C(=O)NCc2c(C(=O)OC)n(-c3ccccc3)c3cc(Cl)ccc3c2=O)cc1` [Example I-118, 7-Chloro-3-[(4-methylcarbamoyl-benzoylamino)-methyl]-4-oxo-1-phenyl-1,4-dihydro-quinoline-2-carboxylic acid methyl ester] registered an IC50 at JNK1 of 11 nM. The molecule further gave an EC50 in assay [1] of 3700 nM.

On to `COC(=O)c1c(CNC(=O)c2cnn(Cc3ccccc3)c2)c(=O)c2ccc(Cl)cc2n1-c1ccccc1` [Example I-119, 3-{[(1-Benzyl-1H-pyrazole-4-carbonyl)-amino]-methyl}-7-chloro-4-oxo-1-phenyl-1,4-dihydro-quinoline-2-carboxylic acid methyl ester], for which, on JNK1, the concentration for half-maximal inhibition (IC50) came out at 13 nM. Moreover, the concentration giving a half-maximal response (EC50) in assay [1] was found to be 6300 nM.

Regarding `COC(=O)c1c(CNC(=O)c2ccc3cc[nH]c3c2)c(=O)c2ccc(Cl)cc2n1-c1ccccc1` [Example I-120, 7-Chloro-3-{[(1H-indole-6-carbonyl)-amino]-methyl}-4-oxo-1-phenyl-1,4-dihydro-quinoline-2-carboxylic acid methyl ester], the IC50 on JNK1 stood at 15 nM. The molecule further displayed an EC50 in assay [1] of 3000 nM.

Molecule `COC(=O)c1c(CNC(=O)c2cnn(C)c2)c(=O)c2ccc(Cl)cc2n1-c1ccccc1` [Example I-121, 7-Chloro-3-{[(1-methyl-1H-pyrazole-4-carbonyl)-amino]-methyl}-4-oxo-1-phenyl-1,4-dihydro-quinoline-2-carboxylic acid methyl ester] showed an IC50 against JNK1 of 15 nM. The concentration giving a half-maximal response (EC50) in assay [1] was found to be 1800 nM.

Molecule `COC(=O)c1c(CNC(=O)c2ccc(-c3cc[nH]n3)cc2)c(=O)c2ccc(Cl)cc2n1-c1ccccc1` [Example I-122, 7-Chloro-4-oxo-1-phenyl-3-{[4-(1H-pyrazol-3-yl)-benzoylamino]-methyl}-1,4-dihydro-quinoline-2-carboxylic acid methyl ester] came in with an IC50 at JNK1 of 15 nM. This molecule also yielded an EC50 in assay [1] of 3300 nM.

In the case of `COC(=O)c1c(CNC(=O)c2ccc(N3CCOCC3)cc2)c(=O)c2ccc(Cl)cc2n1-c1ccccc1` [Example I-123, 7-Chloro-3-[(4-morpholin-4-yl-benzoylamino)-methyl]-4-oxo-1-phenyl-1,4-dihydro-quinoline-2-carboxylic acid methyl ester], the half-inhibitory concentration (IC50) at JNK1 was determined as 16 nM. For the same molecule, the EC50 in assay [1] amounted to 2200 nM.

On to `COC(=O)c1c(CNC(=O)c2ccc(-c3cnns3)cc2)c(=O)c2ccc(Cl)cc2n1-c1ccccc1` [Example I-124, 7-Chloro-4-oxo-1-phenyl-3-[(4-[1,2,3]thiadiazol-5-yl-benzoylamino)-methyl]-1,4-dihydro-quinoline-2-carboxylic acid methyl ester], for which the IC50 on JNK1 was 17 nM. Besides, a half-maximal response in assay [1] (EC50) required 7800 nM.

Turning to `COC(=O)c1c(CNC(=O)c2ccc(-c3noc(C)n3)cc2)c(=O)c2ccc(Cl)cc2n1-c1ccccc1` [Example I-125, 7-Chloro-3-{[4-(5-methyl-[1,2,4]oxadiazol-3-yl)-benzoylamino]-methyl}-4-oxo-1-phenyl-1,4-dihydro-quinoline-2-carboxylic acid methyl ester], at JNK1, 22 nM corresponded to half-maximal inhibition (IC50). In assay [1], this molecule returned an EC50 of 18000 nM.

With `COC(=O)c1c(CNC(=O)c2ccc(-c3nc(C)no3)cc2)c(=O)c2ccc(Cl)cc2n1-c1ccccc1` [Example I-126, 7-Chloro-3-{[4-(3-methyl-[1,2,4]oxadiazol-5-yl)-benzoylamino]-methyl}-4-oxo-1-phenyl-1,4-dihydro-quinoline-2-carboxylic acid methyl ester], 29 nM corresponded to half-maximal inhibition on JNK1 (IC50). The molecule also had a 50% effective concentration (EC50) in assay [1] of 14000 nM.

As to `COC(=O)c1c(CNC(=O)c2ccc(-c3csc(C)n3)cc2)c(=O)c2ccc(Cl)cc2n1-c1ccccc1` [Example I-127, 7-Chloro-3-{[4-(2-methyl-thiazol-4-yl)-benzoylamino]-methyl}-4-oxo-1-phenyl-1,4-dihydro-quinoline-2-carboxylic acid methyl ester], the IC50 on JNK1 turned out to be 31 nM. The molecule also had an EC50 in assay [1] of 38000 nM.

With `COC(=O)c1c(CNC(=O)C2CCN(C(=O)OC(C)(C)C)CC2)c(=O)c2ccc(Cl)cc2n1-c1ccccc1` [Example I-128, 3-{[(1-tert-Butoxycarbonyl-piperidine-4-carbonyl)-amino]-methyl}-7-chloro-4-oxo-1-phenyl-1,4-dihydro-quinoline-2-carboxylic acid methyl ester], at JNK1, the IC50 was 35 nM. In addition, the midpoint of the response in assay [1], the EC50, lay at 100000 nM.

In turn, `COC(=O)c1c(CNC(=O)c2ccc(-c3nnn(C)n3)cc2)c(=O)c2ccc(Cl)cc2n1-c1ccccc1` [Example I-129, 7-Chloro-3-{[4-(2-methyl-2H-tetrazol-5-yl)-benzoylamino]-methyl}-4-oxo-1-phenyl-1,4-dihydro-quinoline-2-carboxylic acid methyl ester] gave an IC50 on JNK1 of 50 nM. In assay [1], this molecule had an EC50 of 11000 nM.

In turn, `COC(=O)c1c(CNC(=O)C2CCN(C(C)=O)CC2)c(=O)c2ccc(Cl)cc2n1-c1ccccc1` [Example I-130, 3-{[(1-Acetyl-piperidine-4-carbonyl)-amino]-methyl}-7-chloro-4-oxo-1-phenyl-1,4-dihydro-quinoline-2-carboxylic acid methyl ester] came in with an IC50 against JNK1 of 220 nM. The midpoint of the response in assay [1], the EC50, lay at 100000 nM.

The molecule `COC(=O)c1c(CNC(=O)c2ccc(Cl)cc2)c(=O)c2ccc(Cl)cc2n1-c1ccccc1` [Example I-132, 7-Chloro-3-[(4-chloro-benzoylamino)-methyl]-4-oxo-1-phenyl-1,4-dihydro-quinoline-2-carboxylic acid methyl ester] came in with an IC50 at JNK1 of 15 nM. The molecule further came in with an EC50 in assay [1] of 9200 nM.

Consider `COC(=O)c1ccc(C(=O)NCc2c(C(=O)OC)n(-c3ccccc3)c3cc(Cl)ccc3c2=O)cc1` [Example I-133, 7-Chloro-3-[(4-methoxycarbonyl-benzoylamino)-methyl]-4-oxo-1-phenyl-1,4-dihydro-quinoline-2-carboxylic acid methyl ester], for which, on JNK1, half-maximal inhibition (IC50) was put at 6 nM. For the same molecule, in assay [1], the response was half-maximal at 13000 nM (EC50).

`COC(=O)c1c(CNC(=O)c2ccc(OC)cc2)c(=O)c2ccc(Cl)cc2n1-c1ccccc1` [Example I-134, 7-Chloro-3-[(4-methoxybenzoylamino)-methyl]-4-oxo-1-phenyl-1,4-dihydro-quinoline-2-carboxylic acid methyl ester] had an IC50 against JNK1 of 7 nM. The EC50 in assay [1] stood at 1900 nM.

On JNK1, `COC(=O)c1c(CNC(=O)c2cccc(OC)c2)c(=O)c2ccc(Cl)cc2n1-c1ccccc1` [Example I-135, 7-Chloro-3-[(3-methoxybenzoylamino)-methyl]-4-oxo-1-phenyl-1,4-dihydro-quinoline-2-carboxylic acid methyl ester] returned a half-inhibitory concentration (IC50) of 8 nM. Also, in assay [1], a half-maximal response (EC50) required 4800 nM.

For the molecule `COC(=O)c1c(CNC(=O)c2ccncc2)c(=O)c2ccc(Cl)cc2n1-c1ccccc1` [Example I-136, 7-Chloro-4-oxo-1-phenyl-3-{[(pyridine-4-carbonyl)-amino]-methyl}-1,4-di-hydro-quinoline-2-carboxylic acid methyl ester], on JNK1, the IC50 came to 12 nM. The molecule also registered an EC50 in assay [1] of 7900 nM.

As for `COC(=O)c1c(CNC(=O)c2cccc(F)c2)c(=O)c2ccc(Cl)cc2n1-c1ccccc1` [Example I-138, 7-Chloro-3-[(3-fluoro-benzoylamino)-methyl]-4-oxo-1-phenyl-1,4-dihydro-quinoline-2-carboxylic acid methyl ester], the concentration for half-maximal inhibition (IC50) on JNK1 came to 13 nM. For the same molecule, in assay [1], the midpoint of the response, the EC50, lay at 10000 nM.

Consider `COC(=O)c1c(CNC(=O)c2cccnc2)c(=O)c2ccc(Cl)cc2n1-c1ccccc1` [Example I-139, 7-Chloro-4-oxo-1-phenyl-3-{[(pyridine-3-carbonyl)-amino]-methyl}-1,4-dihydro-quinoline-2-carboxylic acid methyl ester], for which, on JNK1, the IC50 came out at 13 nM. In assay [1], this molecule registered an EC50 of 9800 nM.

With `COC(=O)c1c(CNC(=O)c2ccc(F)cc2)c(=O)c2ccc(Cl)cc2n1-c1ccccc1` [Example I-140, 7-Chloro-3-[(4-fluoro-benzoylamino)-methyl]-4-oxo-1-phenyl-1,4-dihydro-quinoline-2-carboxylic acid methyl ester], the IC50 against JNK1 came to 14 nM. Further, the response in assay [1] was half-maximal at 10000 nM (EC50).

For `COC(=O)c1c(CNC(=O)c2ccc(F)c(Cl)c2)c(=O)c2ccc(Cl)cc2n1-c1ccccc1` [Example I-141, 7-Chloro-3-[(3-chloro-4-fluoro-benzoylamino)-methyl]-4-oxo-1-phenyl-1,4-dihydro-quinoline-2-carboxylic acid methyl ester], half-maximal inhibition against JNK1 (IC50) was put at 15 nM. In assay [1], the EC50 came to 7000 nM.
